Assay results reported in patent publication US20240130942A1, “Composition for Treating Hair and Skin” (DR. KURT WOLFF GMBH & CO. KG, priority 2020, published 2024).
Entries after “also recorded” stand apart in the source; their conditions may differ.

How the values were obtained:
[1] = test system: Human epidermal keratinocyte cells (HaCaT); experiment: MTT assay, cell viability of HaCaT cells; format: cell-based; conditions: after 48 h and 72 h of cultivation, versus control without DMG, FIG. 1
Method: (§1) 1. As part of an in vitro study, the effect of Na-dimethylglycinate was examined in a pH range from […] in a cell culture model with human horn-forming keratinocyte cells. For this purpose, HaCaT cells were cultured for 1, 3, 5, and 7 days in DMEM medium (including fetal calf serum and an antibiotic-antimycotic mix) and, among other things, the viability, proliferation and migration of the cells were determined using suitable measurement methods, and the expression of the growth factors relevant for cell growth was measured.
For this measurement, a so-called MTT assay was used to determine cellular metabolic activity as an indicator of cell viability and cytotoxicity. This colorimetric assay is based on the reduction of a yellow tetrazolium salt (3-(4,5-dimethylthiazol-2-yl)-2,5-diphenyltetrazolium bromide or MTT) to purple formazan crystals by metabolically active cells.
Human epidermal keratinocyte cells (HaCaT) were seeded in a 96-well plate at a cell density of 5,000 cells/well and cultured in medium (DMEM with 10% FBS, 1% penicillin-streptomycin, 0.5% fungizone). […]
Cell viability was determined using the MTT assay. The absorption was measured in quadruplicate and normalized to the control at 24 hours. […]

VEGF = experiment: Gene expression of VEGF by qRT-PCR in HaCaT cells; format: cell-based, human; conditions: after 24 hours of cultivation, normalized to GAPDH, versus control without DMG, FIG. 4
Method: VEGF (Vascular Endothelial Growth Factor) promotes the growth and formation of new blood and lymphatic vessels. Gene expression was measured using a standard method known as quantitative real-time PCR (qRT-PCR).
Human epidermal keratinocyte cells (HaCaT) were seeded in a 6-well plate at a cell density of 140,000 cells/well and cultured in medium (DMEM with 10% FBS, 1% penicillin-streptomycin, 0.5% fungizone) at 37° C. and 5% by volume CO2. The next day, the cell culture medium without (control) or with the active substance concentrations already present in each case was changed, and the cells were harvested after 24 h. Gene expression was measured using qRT-PCR based on studies previously published in B. V. Diaz, M.-C. Lenoir, A. Ladoux, C. Frelin, M. Demarchez, S. Michel, Journal of Biological Chemistry 2000, 275, 642-650.
The relative gene expression determined by qRT-PCR (triple determination, normalized to the respective gene expression of a constitutively expressed gene; GAPDH—glyceraldehyde-3-phosphate dehydrogenase) of VEGF is shown. Shown is the mean value with standard deviation.

[2] = test system: Human epidermal keratinocyte cells (HaCaT); experiment: CyQUANT assay, proliferation of HaCaT cells; format: cell-based; conditions: after 48 h and 72 h of cultivation, versus control without DMG, FIG. 2
Method: as §1
A so-called CyQUANT assay was carried out to measure the proliferation. In this fluorescence-based assay, the fluorescent dye used binds to DNA (deoxyribonucleic acid), with the content of cellular DNA being a direct measure of the number of cells in a sample.
Human epidermal keratinocyte cells (HaCaT) were seeded in a 96-well plate at a cell density of 5,000 cells/well and cultured in medium (DMEM with 10% FBS, 1% penicillin-streptomycin, 0.5% fungizone). The next day and after a further 24 h as well as 48 h and 72 h of cultivation at 37° C. and 5% by volume CO2, the cell culture medium without (control) or with the active ingredient concentrations already present was changed. […]
Cell proliferation was determined using the CyQUANT assay. The fluorescence was measured in triplicate and normalized to the control at 24 hours. […]

HaCaT cells = experiment: Wound healing assay, cell migration; format: cell-based, human; conditions: images after 16 h, 20 h and 24 h, different DMG concentrations, compared to controls without DMG; FIG. 3
Method: as §1
A so-called wound healing assay was carried out to measure migration, based on previously published studies in T. Kawabata, T. Otsuka, K. Fujita, G. Sakai, R. Matsushima-Nishiwaki, O. Kozawa, H. Tokuda, International Journal of Molecular Medicine 2018, 42, 3149-3156. The principle is based on measuring the migration of cells to a cultivation surface that has not yet been colonized over time. […]
The wound was created at time 0 h and images were taken after 16 h, 20 h and 24 h of cultivation. Based on the image recordings, the cultivation surface, which was not yet colonized with cells, was determined using the ImageJ software. The measured values are normalized to the point in time 0 h (maximum size of the wound) and given in %.

CN(C)CC(=O)[O-].[Na+] [DMG, sodium dimethylglycinate]
cell viability (MTT assay, absorption normalized to the control at 24 hours) [1]: clear increase | relative gene expression of VEGF (VEGF): significant increase; also recorded: significantly increased | cell proliferation (CyQUANT assay, fluorescence normalized to the control at 24 hours) [2]: clear increase | migration or wound closure (HaCaT cells): significantly faster
